In PubChem BioAssay (NCI):
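A five-concentration, 48-hour dose response in 96-well plates underlies each endpoint, interpolated linearly between surrounding concentrations. TGI: total growth inhibition.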

Columns and labels:
Test in all cases: growth of human tumour cells (NCI), 48 h
NCI-H23 lung = system: NCI-H23 lung
HL-60(TB) leukemia = system: HL-60(TB) leukemia
K-562 leukemia = system: K-562 leukemia
LOX IMVI melanoma = system: LOX IMVI melanoma
HOP-62 NSCLC = system: HOP-62 NSCLC
COLO 205 colon = system: COLO 205 colon
UO-31 renal = system: UO-31 renal
SF-539 CNS = system: SF-539 CNS
PC-3 prostate = system: PC-3 prostate
SK-MEL-2 melanoma = system: SK-MEL-2 melanoma
RXF 393 renal = system: RXF 393 renal
CAKI-1 renal = system: CAKI-1 renal
MCF7 breast = system: MCF7 breast
HCT-116 colon = system: HCT-116 colon
U251 CNS = system: U251 CNS
EKVX NSCLC = system: EKVX NSCLC
DU-145 prostate = system: DU-145 prostate
HT29 colon = system: HT29 colon
MOLT-4 leukemia = system: MOLT-4 leukemia
HCC-2998 colon = system: HCC-2998 colon

Row | Compound | TGI (NCI-H23 lung) | TGI (HL-60(TB) leukemia) | TGI (K-562 leukemia) | TGI (LOX IMVI melanoma) | TGI (HOP-62 NSCLC) | TGI (COLO 205 colon) | TGI (UO-31 renal) | TGI (SF-539 CNS) | TGI (PC-3 prostate) | TGI (SK-MEL-2 melanoma) | TGI (RXF 393 renal) | TGI (CAKI-1 renal) | TGI (MCF7 breast) | TGI (HCT-116 colon) | TGI (U251 CNS) | TGI (EKVX NSCLC) | TGI (DU-145 prostate) | TGI (HT29 colon) | TGI (MOLT-4 leukemia) | TGI (HCC-2998 colon)
1 | CC1(C)CCCOc2cccc(c2)OCCCC(C)(C)C1=O | > 100 µM | > 100 µM | > 100 µM | > 100 µM | > 100 µM | > 100 µM | > 100 µM | > 100 µM | > 100 µM | 54.9 µM | 48.5 µM | > 100 µM | > 100 µM | > 100 µM | > 100 µM | > 100 µM | > 100 µM | 43.2 µM | 37.1 µM | 
2 | CCOC(=O)C1=COC(C)(c2ccccc2)CC1=O (stereo not given) | > 100 µM |  | > 100 µM |  | > 100 µM | > 100 µM | > 100 µM | > 100 µM | > 100 µM | > 100 µM | > 100 µM | > 100 µM | > 100 µM | > 100 µM | > 100 µM | > 100 µM | > 100 µM | > 100 µM | 98 µM | > 100 µM
3 | Cn1c2ccccc2c2nc3ccccc3c(Cl)c21 | > 100 µM | > 100 µM | > 100 µM | > 100 µM | > 100 µM | > 100 µM |  | > 100 µM | > 100 µM | > 100 µM | > 100 µM | > 100 µM | > 100 µM | > 100 µM | > 100 µM |  | > 100 µM | > 100 µM | > 100 µM | 
4 | CCOP(=O)(OCC)[C@]12C[C@@H](C)C=C[C@H]1COC2=O | > 100 µM |  | > 100 µM | > 100 µM | > 100 µM | > 100 µM | > 100 µM | > 100 µM | > 100 µM | > 100 µM | > 100 µM | > 100 µM | > 100 µM | > 100 µM | > 100 µM | > 100 µM | > 100 µM |  | > 100 µM | > 100 µM
5 | COc1ccc(N=Nc2ccc3oc(=O)c(C(=O)Nc4ccc(Cl)cc4)cc3c2)cc1 | > 10 µM |  |  | > 10 µM | > 10 µM | > 10 µM | > 10 µM | > 10 µM | > 10 µM | > 10 µM | > 10 µM | > 10 µM | > 10 µM |  | > 10 µM | > 10 µM | > 10 µM | > 10 µM | > 10 µM | > 10 µM
6 | CCCC(=O)Oc1ccc2c(C)cc(=O)oc2c1OC(=O)CCC | > 100 µM |  | > 100 µM | > 100 µM | > 100 µM | > 100 µM | > 100 µM | > 100 µM | > 100 µM | > 100 µM |  |  | > 100 µM | > 100 µM | > 100 µM | > 100 µM | > 100 µM | > 100 µM | > 100 µM | 
7 | CC(=O)N/N=C1/CC[C@@]2(C)C(=CC[C@H]3C4CCC(C(C)CCCC(C)C)[C@@]4(C)CCC32)C1(C)C (stereo not given in full) | > 100 µM | > 100 µM | > 100 µM | > 100 µM | > 100 µM | > 100 µM | > 100 µM |  | > 100 µM | > 100 µM |  | > 100 µM | > 100 µM | > 100 µM | > 100 µM | > 100 µM | > 100 µM | > 100 µM | 34.1 µM | 
8 | CC(C)c1cccc(C(=O)NCCN(C)C)c1[N+](=O)[O-] | > 100 µM | > 100 µM | > 100 µM |  | > 100 µM | > 100 µM | > 100 µM | > 100 µM | > 100 µM | > 100 µM |  | > 100 µM | > 100 µM | > 100 µM | > 100 µM |  | > 100 µM | > 100 µM | > 100 µM | > 100 µM
9 | CC1CN=C(NS(=O)(=O)c2cc(C(=O)Nc3ccc(F)cc3)c(Cl)cc2S)NN1 (stereo not given) | > 100 µM | > 100 µM | > 100 µM | > 100 µM | > 100 µM | > 100 µM | > 100 µM | > 100 µM | > 100 µM | 76.7 µM |  | > 100 µM | > 100 µM | > 100 µM | > 100 µM | > 100 µM | > 100 µM | > 100 µM | > 100 µM | > 100 µM
10 | CC(/C=N\NC(=S)N(C)C)=N/NC(=S)N(C)C | > 37.7 µM |  | > 100 µM | > 100 µM | > 51.1 µM | 33.7 µM | > 39.2 µM | > 100 µM | > 100 µM | 70.7 µM | 2.58 µM | > 56.2 µM | > 100 µM | 31.4 µM | > 100 µM | > 100 µM | > 100 µM | > 100 µM | > 100 µM | 75.9 µM
11 | Cc1cc(=O)oc2c3c(ccc12)OC(c1ccc(Br)cc1)CC3=O (stereo not given) | 27.5 µM |  | 19 µM | 14.6 µM | 21.8 µM | 30.5 µM | 21.9 µM | 27.1 µM | 47.9 µM | 33.5 µM |  | 43.8 µM | 12.7 µM | 23.8 µM | 18.3 µM | 31.8 µM |  | 32 µM | 4.91 µM | 59.2 µM
12 | CC1C=C[C@H](Sc2ccccc2)CC[C@@]1(C)O (stereo not given in full) | > 100 µM | > 100 µM | > 100 µM | > 100 µM | > 100 µM | > 100 µM | > 100 µM | > 100 µM |  | > 100 µM | > 100 µM | > 100 µM |  | > 100 µM | > 100 µM | > 100 µM |  | > 100 µM | > 100 µM | > 100 µM
13 | CN(/N=C\c1ccc2ccccc2c1)C1=NCCN1 | > 100 µM | 33 µM | 45.2 µM | 25.4 µM | 40.7 µM | 31.9 µM | 31.7 µM | 32.8 µM |  | 30.9 µM | 23.9 µM | 27.4 µM | 38.7 µM | 31.8 µM | 56.5 µM | 63.3 µM | > 100 µM | 31.3 µM | 40.9 µM | 29.7 µM
